# Data from patent publication US20150094474A1, “AGRICULTURAL CHEMICALS” (Redx Pharma Ltd., priority 2012, published 2015).
# Key:
# peas = test: Herbicidal bioassay, peas (% necrosis); type: in vivo
# In short: (§1)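 Scoring of % necrosis followed EPPO guideline PP1/135 at specified growth intervals, five replicates per species and treatment. Plants at the 2-4 true leaf stage received Potter-tower sprays of DMSO-diluted compounds across six levels from 0.0001% to 0.05%, with water and DMSO controls.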
# barley = test: Herbicidal bioassay, barley (% necrosis); type: in vivo
# In short: as §1
compound,measurement,setting,value
"COc1cc(OC)nc(NC(=O)NS(=O)(=O)c2cc(CNS(C)(=O)=O)ccc2COC(C)=O)n1 [Compound 61, [2-[(4,6-Dimethoxypyrimidin-2-yl)carbamoylsulfamoyl]-4-(methanesulfonamidomethyl)phenyl]methylacetate]",Sum of % necrosis in Pea,"peas; Dose 0.000001, Day 0",C (less than 50% necrosis)
same,Sum of % necrosis in Pea,"peas; Dose 0.000001, Day 1",C (less than 50% necrosis)
same,Sum of % necrosis in Pea,"peas; Dose 0.000001, Day 3",C (less than 50% necrosis)
same,Sum of % necrosis in Pea,"peas; Dose 0.000001, Day 7",C (less than 50% necrosis)
same,Sum of % necrosis in Pea,"peas; Dose 0.000001, Day 10",C (less than 50% necrosis)
same,Sum of % necrosis in Pea,"peas; Dose 0.000001, Day 14",C (less than 50% necrosis)
same,Sum of % necrosis in Pea,"peas; Dose 0.000005, Day 0",C (less than 50% necrosis)
same,Sum of % necrosis in Pea,"peas; Dose 0.000005, Day 1",C (less than 50% necrosis)
same,Sum of % necrosis in Pea,"peas; Dose 0.000005, Day 3",C (less than 50% necrosis)
same,Sum of % necrosis in Pea,"peas; Dose 0.000005, Day 7",C (less than 50% necrosis)
same,Sum of % necrosis in Pea,"peas; Dose 0.000005, Day 10",C (less than 50% necrosis)
same,Sum of % necrosis in Pea,"peas; Dose 0.000005, Day 14",C (less than 50% necrosis)
same,Sum of % necrosis in Pea,"peas; Dose 0.00001, Day 0",C (less than 50% necrosis)
same,Sum of % necrosis in Pea,"peas; Dose 0.00001, Day 1",C (less than 50% necrosis)
same,Sum of % necrosis in Pea,"peas; Dose 0.00001, Day 3",C (less than 50% necrosis)
same,Sum of % necrosis in Pea,"peas; Dose 0.00001, Day 7",C (less than 50% necrosis)
same,Sum of % necrosis in Pea,"peas; Dose 0.00001, Day 10",C (less than 50% necrosis)
same,Sum of % necrosis in Pea,"peas; Dose 0.00001, Day 14",B (50%-80% necrosis)
same,Sum of % necrosis in Pea,"peas; Dose 0.00005, Day 0",C (less than 50% necrosis)
same,Sum of % necrosis in Pea,"peas; Dose 0.00005, Day 1",C (less than 50% necrosis)
same,Sum of % necrosis in Pea,"peas; Dose 0.00005, Day 3",C (less than 50% necrosis)
same,Sum of % necrosis in Pea,"peas; Dose 0.00005, Day 7",C (less than 50% necrosis)
same,Sum of % necrosis in Pea,"peas; Dose 0.00005, Day 10",B (50%-80% necrosis)
same,Sum of % necrosis in Pea,"peas; Dose 0.00005, Day 14",B (50%-80% necrosis)
same,Sum of % necrosis in Pea,"peas; Dose 0.0001, Day 0",C (less than 50% necrosis)
same,Sum of % necrosis in Pea,"peas; Dose 0.0001, Day 1",C (less than 50% necrosis)
same,Sum of % necrosis in Pea,"peas; Dose 0.0001, Day 3",C (less than 50% necrosis)
same,Sum of % necrosis in Pea,"peas; Dose 0.0001, Day 7",C (less than 50% necrosis)
same,Sum of % necrosis in Pea,"peas; Dose 0.0001, Day 10",C (less than 50% necrosis)
same,Sum of % necrosis in Pea,"peas; Dose 0.0001, Day 14",C (less than 50% necrosis)
same,Sum of % necrosis in Pea,"peas; Dose 0.0005, Day 0",C (less than 50% necrosis)
same,Sum of % necrosis in Pea,"peas; Dose 0.0005, Day 1",C (less than 50% necrosis)
same,Sum of % necrosis in Pea,"peas; Dose 0.0005, Day 3",C (less than 50% necrosis)
same,Sum of % necrosis in Pea,"peas; Dose 0.0005, Day 7",B (50%-80% necrosis)
same,Sum of % necrosis in Pea,"peas; Dose 0.0005, Day 10",B (50%-80% necrosis)
same,Sum of % necrosis in Pea,"peas; Dose 0.0005, Day 14",A (over 80% necrosis)
same,Sum of % necrosis in barley,"barley; Dose 0.000001, Day 0",C (less than 50% necrosis)
same,Sum of % necrosis in barley,"barley; Dose 0.000001, Day 1",C (less than 50% necrosis)
same,Sum of % necrosis in barley,"barley; Dose 0.000001, Day 3",C (less than 50% necrosis)
same,Sum of % necrosis in barley,"barley; Dose 0.000001, Day 7",C (less than 50% necrosis)
same,Sum of % necrosis in barley,"barley; Dose 0.000001, Day 10",C (less than 50% necrosis)
same,Sum of % necrosis in barley,"barley; Dose 0.000001, Day 14",C (less than 50% necrosis)
same,Sum of % necrosis in barley,"barley; Dose 0.000005, Day 0",C (less than 50% necrosis)
same,Sum of % necrosis in barley,"barley; Dose 0.000005, Day 1",C (less than 50% necrosis)
same,Sum of % necrosis in barley,"barley; Dose 0.000005, Day 3",C (less than 50% necrosis)
same,Sum of % necrosis in barley,"barley; Dose 0.000005, Day 7",C (less than 50% necrosis)
same,Sum of % necrosis in barley,"barley; Dose 0.000005, Day 10",C (less than 50% necrosis)
same,Sum of % necrosis in barley,"barley; Dose 0.000005, Day 14",C (less than 50% necrosis)
same,Sum of % necrosis in barley,"barley; Dose 0.00001, Day 0",C (less than 50% necrosis)
same,Sum of % necrosis in barley,"barley; Dose 0.00001, Day 1",C (less than 50% necrosis)
same,Sum of % necrosis in barley,"barley; Dose 0.00001, Day 3",C (less than 50% necrosis)
same,Sum of % necrosis in barley,"barley; Dose 0.00001, Day 7",C (less than 50% necrosis)
same,Sum of % necrosis in barley,"barley; Dose 0.00001, Day 10",C (less than 50% necrosis)
same,Sum of % necrosis in barley,"barley; Dose 0.00001, Day 14",C (less than 50% necrosis)
same,Sum of % necrosis in barley,"barley; Dose 0.00005, Day 0",C (less than 50% necrosis)
same,Sum of % necrosis in barley,"barley; Dose 0.00005, Day 1",C (less than 50% necrosis)
same,Sum of % necrosis in barley,"barley; Dose 0.00005, Day 3",C (less than 50% necrosis)
same,Sum of % necrosis in barley,"barley; Dose 0.00005, Day 7",C (less than 50% necrosis)
same,Sum of % necrosis in barley,"barley; Dose 0.00005, Day 10",C (less than 50% necrosis)
same,Sum of % necrosis in barley,"barley; Dose 0.00005, Day 14",C (less than 50% necrosis)
same,Sum of % necrosis in barley,"barley; Dose 0.0001, Day 0",C (less than 50% necrosis)
same,Sum of % necrosis in barley,"barley; Dose 0.0001, Day 1",C (less than 50% necrosis)
same,Sum of % necrosis in barley,"barley; Dose 0.0001, Day 3",C (less than 50% necrosis)
same,Sum of % necrosis in barley,"barley; Dose 0.0001, Day 7",C (less than 50% necrosis)
same,Sum of % necrosis in barley,"barley; Dose 0.0001, Day 10",C (less than 50% necrosis)
same,Sum of % necrosis in barley,"barley; Dose 0.0001, Day 14",C (less than 50% necrosis)
same,Sum of % necrosis in barley,"barley; Dose 0.0005, Day 0",C (less than 50% necrosis)
same,Sum of % necrosis in barley,"barley; Dose 0.0005, Day 1",C (less than 50% necrosis)
same,Sum of % necrosis in barley,"barley; Dose 0.0005, Day 3",C (less than 50% necrosis)
same,Sum of % necrosis in barley,"barley; Dose 0.0005, Day 7",C (less than 50% necrosis)
same,Sum of % necrosis in barley,"barley; Dose 0.0005, Day 10",C (less than 50% necrosis)
same,Sum of % necrosis in barley,"barley; Dose 0.0005, Day 14",C (less than 50% necrosis)
